Measurements as given in patent US20140294724A1, “COMPOSITIONS AND METHODS FOR TREATMENT OF PROTEINOPATHIES” (Intellect Neurosciences, Inc., priority 2011, published 2014).
Where “and” joins values, the source holds several entries; their conditions need not be identical. Identical values can stand only once.

Columns and labels:
[1] = Oxygen Radical Absorbance Capacity assay (ORAC antioxidant test); assay type: biochemical; details: for Calculated Trolox® equivalents: ratio of slope of sample to slope of Trolox® (Eq. 3)
Excerpt: Sodium Fluorescein was purchased from Invitrogen. 2,2′-Azobis(2-amidinopropane) dihydrochloride (AAPH), 6-hydroxy-2,5,7,8-tetramethylchroman-2-carboxylic acid (Trolox®), gallic acid, Epigallocatechin gallate (EGCG), epigallocatechin (EGC), and quercetin dihydrate were purchased from Sigma-Aldrich (St. Louis, Mo.). Black-sided, special optics clear bottom plates (part #3615) were obtained from Corning.
The ORAC assay depends on the free radical damage to a fluorescent probe, such as fluorescein, to result in a downward change of fluorescent intensity. The assumption is that the degree of change is indicative of the amount of radical damage. […] This inhibition is observed as a preservation of the fluorescent signal. Reactions containing antioxidants and or blanks are run in parallel using equivalent amounts of a molecule capable of generating super reactive oxygen species (ROS) and fluorescent probe. Because the reaction is driven to completion, one can quantitate the protection by calculating the area under the curve (AUC) from the experimental sample. After subtracting the AUC from the blank, the resultant difference would be the protection conferred by the antioxidant compound. […] The ORAC assay is unique in that because the assay is driven to completion the AUC calculation combines both the inhibition time as well inhibition percentage of free radical damage by the antioxidant into a single quantity.
Reactive oxygen species generators were added to parallel reactions containing equal amounts of a fluorescent probe. Reactions contained either a buffer blank or antioxidant samples and standards. The antioxidant capacity of a sample is the net difference between the area under the curve (AUC) of the sample and that of the blank. The exterior wells were not used for experimental determinations. 200 μL of MilliQ dH2O was added to the outer wells surrounding the test wells in order to minimize evaporation. 150 μL sodium fluorescein was added to experimental wells. […] The plate was allowed to equilibrate by incubating for 30 min in the Victor2^V Microplate Reader (Perkin Elmer, Waltham, Mass.) at 37° C. Reactions were initiated by the addition 25 μL of AAPH solution (free radical initiator) for a final reaction volume of 200 μl. The fluorescence was monitored kinetically in Victor2V with temperature control reader for at least 80 min with data taken every minute. Fast orbital shaking (0.5 mm) for 10 sec was performed prior to each reading. The temperature was set to 37° C. at all time and the reagents were treated as light sensitive.
AUC=(R1/R1)+(R2/R1)+(R3/R1)+ . . . +(Rn/R1) (Eq. 1)
Where R1 is the fluorescence reading at the initiation of the reaction and Rn is the last measurement.
Net AUC=AUC(sample)−AUC(blank) (Eq. 2)
The resultant standard curve was then interpolated to determine of antioxidant capacity of the samples and reported as Trolox® equivalence. To determine Trolox® equivalents of each sample range the ratio of the slope (m) of the linear regression analysis of the sample to the slope of the linear regression of Trolox® was used:
TE(range of concentrations)=m(sample)/m(Trolox®) (Eq. 3)

β-Amyloid 1-40 peptide = biological target: T1, β-Amyloid 1-40 peptide (Homo sapiens, UniProt P05067); assay: β-Amyloid aggregation, Thioflavin T fluorescence assay; assay type: biochemical; details: 24 hours; for reduction of fibrillogenesis: with ApoE4 added (about 1/80 of test compound), equimolar with Aβ; for potency in reducing fibrillogenesis compared with melatonin: with ApoE4 added
T1 construct: 60 μM β-Amyloid 1-40
Method: In a NUNC PP 96-well plate 100 μL of MilliQ dH2O was added to the outer wells surrounding the test wells in order to minimize evaporation. Samples in a final volume of 100 μl/well were added to the 96-well plate as follows:
Aggregation was measured at 0 and 24 hours incubation time.
5 μL was obtained from each test sample after incubation and added to 2 mL of a glycine/NaOH buffer (50 mM, pH 9.2) containing 3 μM thioflavin T. Fluorescence intensities were measured at an excitation wavelength of 450 nm and an emission wavelength of 485 nm in a Envision fluorescence spectrophotometer. A time scan of fluorescence intensity was performed, and three measurements were taken after the decay reached a plateau at 200, 220, and 240 s and averaged after subtracting the background fluorescence of 3 μM thioflavin T in the blank buffers. […] All measurements were taken in triplicate. Siliconized polypropylene microcentrifuge tubes (USA Scientific) were used for these experiments. Solutions of recombinant apolipoproteins were immediately lyophilized and, prior to being used, resuspended in 0.1 M tris-phosphate-HCl buffer (pH 7.4). […] Solutions of Aβ were prepared by dissolving 2.2 mg of the peptide in 1 mL of 50 mM buffer at pH 9.6. Aliquots (50 uL) of this solution were lyophilized and stored at −80° C. until they were needed for the experiments. Working stock solutions of the peptide (concentration of 500 uM) were prepared in HPLC-grade water immediately prior to the experiments. The absence of aggregates and amyloid fibrils in these solutions was verified by spectrofluorometry.

patients with AD = details: 250 mg dose, cited from earlier work
[2] = system: moderate-stage AD patients; details: 2000 IU per day; cited from earlier work

T1 sequence (P05067 672-711): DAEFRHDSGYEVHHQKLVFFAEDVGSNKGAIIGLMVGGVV

reduction of fibrillogenesis (β-Amyloid 1-40 peptide) [%]	Compound	AUC ([1]; Concentration 0.390625)	Net AUC ([1]; Concentration 0.390625)	AUC ([1]; Concentration 0.78125)	Net AUC ([1]; Concentration 0.78125)	AUC ([1]; Concentration 1.5625)	Net AUC ([1]; Concentration 1.5625)	AUC ([1]; Concentration 3.125)	Net AUC ([1]; Concentration 3.125)	AUC ([1]; Concentration 6.25)	Net AUC ([1]; Concentration 6.25)	AUC ([1]; Concentration 12.5)	Net AUC ([1]; Concentration 12.5)	AUC ([1]; Concentration 25)	Net AUC ([1]; Concentration 25)	AUC ([1]; Concentration 50)	Net AUC ([1]; Concentration 50)	AUC ([1]; Concentration 100)	Net AUC ([1]; Concentration 100)	Calculated Trolox® equivalents [1] [Trolox® equivalents]	further results
75	COc1ccc2[nH]cc(CCNC(=O)CCCCCN3C(=O)CC(SC[C@H](N)C(=O)O)C3=O)c2c1 (stereo partly drawn) [Example 1, (2R)-2-amino-3-((1-(6-((2-(5-methoxy-1H-indol-3-yl)ethyl)amino)-6-oxohexyl)-2,5-dioxopyrrolidin-3-yl)thio)propanoic acid]	14.99	8.56	20.01	13.58	29.51	23.08	46.55	40.12	74.68	68.25	93.56	87.13	93.03	86.60	88.39	81.96	82.12	75.69	2.02	potency in reducing fibrillogenesis compared with melatonin (β-Amyloid 1-40 peptide): about 2 fold
75	COc1ccc2[nH]cc(CCNC(=O)CCOCCOCCOCCOCCNC(=O)CCN3C(=O)CC(SC[C@H](N)C(=O)O)C3=O)c2c1 (stereo partly drawn) [Example 2, (2R)-2-amino-3-((1-(1-(5-methoxy-1H-indol-3-yl)-4,20-dioxo-7,10,13,16-tetraoxa-3,19-diazadocosan-22-yl)-2,5-dioxopyrrolidin-3-yl)thio)propanoic acid]	13.97	7.75	20.49	14.27	28.06	21.84	45.62	39.39	71.79	65.56	94.48	88.26	97.13	90.91	97.12	90.90	96.55	90.33	1.97	potency in reducing fibrillogenesis compared with melatonin (β-Amyloid 1-40 peptide): about 2 fold
	COc1ccc2[nH]cc(CCNC(C)=O)c2c1 [Melatonin, N-[2-(5-Methoxyindol-3-yl)ethyl]acetamide]	14.74	8.09	20.89	14.24	28.74	22.09	42.59	35.94	66.10	59.45	88.65	82.00	93.12	86.47	94.75	88.10	91.48	84.82		
	CN(C)Cc1ccc2c(Cl)cc(Cl)c(O)c2n1 [PBT2]																				tolerability (patients with AD; patients with AD): well-tolerated; cerebrospinal fluid (CSF) levels of amyloid-beta42 (patients with AD; within 12 weeks of treatment): significantly lowered; executive function on a Neuro-psychological Test Battery (NTB) (patients with AD; within 12 weeks of treatment): significantly improved
	Cc1c(C)c2c(c(C)c1O)CCC(C)(C(=O)O)O2 (stereo not shown) [Trolox, 6-hydroxy-2,5,7,8-tetramethylchroman-2-carboxylic acid]	11.95 and 13.53 and 11.49	5.30 and 7.10 and 5.27	14.90 and 15.01 and 14.62	8.24 and 8.58 and 8.39	20.00 and 19.69 and 19.52	13.34 and 13.26 and 13.30	28.96 and 29.49 and 28.51	22.31 and 23.06 and 22.29	44.91 and 44.55 and 43.41	38.25 and 38.12 and 37.18	77.61 and 74.88 and 73.04	70.96 and 68.45 and 66.81	96.34 and 100.28 and 98.61	89.68 and 93.85 and 92.39	98.05 and 97.48 and 100.67	91.40 and 91.05 and 94.45	95.82 and 99.05 and 97.58	89.17 and 92.62 and 91.35		protection of fluorescein against oxidation ([1]; 6.25 μM, lowest concentration tested, versus buffer only control): only slight protection; duration of virtually full protection of fluorescein against oxidation ([1]; 100 μM, highest concentration tested): approximately 20 minutes
	Cc1c(C)c2c(c(C)c1O)CCC(C)(CCCC(C)CCCC(C)CCCC(C)C)O2 (stereo not drawn) [Vitamin E, α-tocopherol]																				delay in reaching the end points of institutionalization, loss of major activities of daily living, or death [2]: small but significant delay; loss of cognitive performance [2]: did not delay
